The results in this text go back to patent US9708349B2, “Borates for photoactivated chemical bleaching” (GENERAL ELECTRIC COMPANY, priority 2015, dated 2017).

The nature of the series: Stability of solid borate on exposure to air (1HNMR).

Some results are limits rather than exact numbers.

Consider `c1ccc(C[B-](c2ccccc2)(c2ccccc2)c2ccccc2)cc1` [MBB, monobenzyltriphenyl borate], for which the “time to evidence of decomposition” value is reported as less than 10 min.
